Laboratory results published in US20040043403A1, “Process for determining the biological activity of epidermal growth factor receptor tyrosine kinase inhibitors” (priority 2000, published 2004).

Assays:
[1] = test system: A431, NCI-H596, NCI-H520, MDA-MB-468 and WBCs; assay: UniGEM V array 2 h expression profiles of 4 tumor cell lines and WBCs; format: cell-based, human; details: 3 μM, cut off set at 3, vs DMSO, data not shown
Method: (§1) 20 million tissue culture cells (about 80% confluent) or 200 million WBCs are incubated for 2 or 24 h in culture medium containing 3 μM of an EGFR tyrosine kinase inhibitor or 0.03% DMSO. Total RNA from cell pellet is isolated using the RNeasy kit (Qiagen). mRNA is isolated using the oligotex mRNA purification kit (Qiagen). The quality of the obtained mRNA is tested by real time RT-PCR using beta-Actin primers (PE Applied Biosystems) with an amplicon size of 300 base pairs (bp). The total RNA is used as a reference to calculate the amount of mRNA-enrichment in the oligotex purified samples.
(§2) Probes for the UniGEM hybridization are synthesized by Incyte Genomics (Palo Alto, Calif., USA). For each probe 200 ng mRNA (50 ng/μl) is shipped in dry ice. The results are analyzed using the Expressionist Software Package provided by GeneData.
(§3) Expression profiles (UniGEM V arrays) of 4 tumor cell lines with different EGFR expression status (A431, NCI-H596, NCI-H520 and MDA-MB-468) and of WBCs upon exposure of cells to 3 μM of COMPOUND A for 2 or 24 h are analyzed. As control, cells treated with DMSO for the same time period are used. […] The cDNA array hybridization is repeated with the UniGEM 1 array using the same mRNA (Table 3).

[2] = test system: Epidermal Growth Factor (EGF)-responsive tumors; details: disclosed in WO 97/02266; cited from earlier work
A431 cells [3] = assay: UniGEM V cDNA array expression profile of A431 cells; format: cell-based, human; details: 3 μM, 24 hours, RNA from Experiment 1
Method: The following tissue culture cells are chosen because of their EGFR expression status (Table 1). EGFR expression is measured by Western blotting, using anti-EGFR monoclonal antibodies from Transduction Labs (Lexington, Ky.). The cell lines are obtained from the ATCC (Rockville, […].). The cells are cultured in 5% CO2 at 37° C.
as §1, §2, §3

A431 cells [4] = assay: Western blot of clusterin induction in A431 cells; format: cell-based, human
Method: An EGFR tyrosine kinase inhibitor is dissolved in DMSO to obtain a 10 mM stock solution. The stock solution is further diluted in culture medium to final concentrations of 10 nM to 3 μM. 3.5 million cells/100 mm dish/12 ml culture medium are incubated for 24 h in 5% CO2 at 37° C. The medium is replaced with medium containing the EGFR tyrosine kinase inhibitor or DMSO. Cells are incubated for 4 to 32 h. The frozen pellets are lysed in 500 μl of lysis buffer (50 mM Tris-HCl pH 7.5, 1% Sodium Dodecyl Sulfate (SDS)). To shear genomic DNA, the cell lysates are processed in a FastPrep instrument for 20 sec at a speed rating of 4, using the green […] tubes (Bio101#6040-6010). Protein concentrations are determined according to the PIERCE-method (BCA Protein Assay, Reagent A and B). Protein concentration of lysates is adjusted to 1 μg/μl with lysis buffer. 4 parts of cell lysates are mixed with 1 part of 5 fold concentrated Laemmli buffer, the lysates are stored at -20° C. 40 μl of cell lysate is heated for 3 min to 95° C. and directly loaded on to 10% or 15% SDS-PAGE gels. The gels are run at 130 V for 90 min under standard conditions. The separated proteins are semi-dry blotted on to a PVDF membrane (Immobilon-P, Millipore #IPVH 202 00) for 70 min with 45 mA per blot. Immediately after the transfer the blots are incubated in Blotto A (5% skim milk powder in Tris Buffered Saline (TBS)/0.05% Tween-20) for 1 h at room temperature on a rotating platform. The blots are then washed three times in TBS/0.05% Tween-20. The blots are incubated […] with 0.2 μg/ml of e.g. goat anti-human clusterin (C-18) antibody (Santa Cruz, sc-6419) in Blotto A for 1.5 h at room temperature on a rotating platform. The control blots are incubated with 0.2 μg/ml of mouse anti-human-actin (C-2) antibody (Santa Cruz, sc-8432). The blots are washed three times with TBS/0.05% Tween-20. […]

EGFR tyrosine kinase = EGFR tyrosine kinase (Homo sapiens, UniProt P00533); details: disclosed in WO 97/02266; cited from earlier work
Sequence of EGFR tyrosine kinase (P00533 669-1210 limits assumed): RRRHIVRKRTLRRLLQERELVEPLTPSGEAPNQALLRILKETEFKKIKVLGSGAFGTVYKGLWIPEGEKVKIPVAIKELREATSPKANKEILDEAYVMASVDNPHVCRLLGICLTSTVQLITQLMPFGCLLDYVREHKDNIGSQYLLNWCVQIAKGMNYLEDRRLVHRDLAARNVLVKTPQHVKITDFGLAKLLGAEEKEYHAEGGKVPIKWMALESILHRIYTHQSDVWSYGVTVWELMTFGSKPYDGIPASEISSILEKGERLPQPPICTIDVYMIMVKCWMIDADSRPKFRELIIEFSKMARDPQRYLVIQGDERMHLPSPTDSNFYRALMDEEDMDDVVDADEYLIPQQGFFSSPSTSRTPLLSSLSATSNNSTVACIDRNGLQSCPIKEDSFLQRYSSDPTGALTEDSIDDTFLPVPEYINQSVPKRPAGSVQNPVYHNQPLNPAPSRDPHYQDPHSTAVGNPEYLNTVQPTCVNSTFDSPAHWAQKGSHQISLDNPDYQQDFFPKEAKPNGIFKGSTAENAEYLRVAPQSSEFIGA

SMILES: C[C@@H](Nc1ncnc2[nH]c(-c3ccc(O)cc3)cc12)c1ccccc1 [COMPOUND A, (R)-6-(4-hydroxy-phenyl)-4-[(1-phenyl-ethyl)-amino]-7H-pyrrolo[2,3-d]pyrimidine]
- 2 h expression profiles, induced and repressed genes [1]: almost no induced genes and only few repressed genes
- 2 h expression profiles: early growth response protein 1 [1]: repression in two cell lines and WBCs
- Anti-proliferative activity against EGF-responsive tumors [2]: exhibits anti-proliferative activity
- Gene induction, Micro Array UniGEM V: Acute phase serum amyloid A protein (A431 cells [3]): 3.3
- Gene induction, Micro Array UniGEM V: Cathepsin H (A431 cells [3]): 2.4
- Gene induction, Micro Array UniGEM V: Complement component 3 (C3) (A431 cells [3]): 3.3
- Gene induction, Micro Array UniGEM V: Complement cytolysis inibitor (Clusterin) (A431 cells [3]): 6.6
- Gene induction, Micro Array UniGEM V: DNA binding protein inhibitor ID-3 (A431 cells [3]): 2.6
- Gene induction, Micro Array UniGEM V: Extracellular protein S1-5 (A431 cells [3]): 2.2
- Gene induction, Micro Array UniGEM V: TGF-beta induced gene (A431 cells [3]): 2.7
- Gene induction, Micro Array UniGEM V: TRAIL (A431 cells [3]): 4.0
- Gene induction, Micro Array UniGEM V: VAC-beta (annexin VIII) (A431 cells [3]): 2.2
- Clusterin induction, Western blot (FIG. 4) (A431 cells [4]; A431 cells (high levels of EGFR), 300 nM, 24 h, vs 0.03% DMSO): strong clusterin expression signals
- Concentration at which the 43 kDa clusterin signals reach a maximum (FIG. 2) (A431 cells [4]; A431 cells, 10 nM to 1 μM, 24 h, signals increase with concentration): 300 nM
- Time course of clusterin protein induction (FIG. 3) (A431 cells [4]; A431 cells, 300 nM, 4, 8, 16, 24 and 32 h): continuous increase of clusterin signal from 16 h to 32 h
- Inhibition of the EGFR tyrosine kinase (EGFR tyrosine kinase): potent and selective inhibitor
